Data on 1 compound can be found in patent US11911356B2, “Regulation of mutant TERT by BRAF V600E/map kinase pathway through FOS/GABP in human cancer” (THE JOHNS HOPKINS UNIVERSITY, priority 2017, dated 2024).

SMILES strings stand for the structures.

For one experiment, the system named is TERT expression. The experiment in a line: TERT expression by qRT-PCR in human cancer cell lines treated with inhibitors. It counts as cell-based. As to conditions: for TERT expression: 0.5 uM PLX4032, 24 hours. How it is done:
FIG. 2A-2G. BRAF V600E/MAPK pathway regulated TERT expression. (FIG. 2A) TERT expression was analyzed by qRT-PCR in cells treated with 0.5 uM PLX4032 or 0.2 uM AZD6244 for 24 hours (upper panel). The corresponding levels of phosphorylated ERK (p-ERK), total ERK (t-ERK), and beta-actin were detected by Western blotting (lower panel). The relative TERT mRNA expression levels were normalized to the DMSO control group. (FIG. 2B) Luciferase reporting assay of TERT promoter activities in K1 cells treated with DMSO or PLX4032 (0.5 uM). (FIG. 2C, 2D) Specific shRNA against BRAF were used to knock down BRAF in thyroid cancer cell lines BCPAP and K1 and melanoma cell line A375. Scramble shRNA was used as control. Cells were then subjected to Western blotting (FIG. 2C) and qRT-PCR (FIG. 2D). (FIG. 2E) Sequencing of the BRAF exon-15 in the parental and heterozygous BRAF-V600E knock-in SW48 cells. BRAF V600E was knocked in on one allele of BRAF by rAAV technology through homologous recombination and Cre recombinase of the Neo cassette. (FIG. 2F) Western blotting analyses of phosphorylation of ERK (p-ERK), total ERK (t-ERK), BRAF, and beta-actin in the parental and BRAF-V600E knock-in SW48 cells. (FIG. 2G) TERT promoter luciferase reporter assay in SW48 cells with/without BRAF V600E knock-in. **P<0.01, ***P<0.001, by 2-tailed Student's t test. P values are for the comparison of the indicated condition with DMSO (FIG. 2B), scramble (FIG. 2D), or BRAF-WT groups (FIG. 2G). All the values represent the average standard deviation (SD) of triplicate samples from a typical experiment. All the experiments were performed three times with similar results.
FIG. 3A-3C. MYC regulated TERT expression in a TERT promoter mutation-independent manner. (FIG. 3A) The four indicated cancer cell lines harboring BRAF V600E mutation were treated with 0.5 uM PLX4032 and/or 10 nM MYC-specific siRNA (siMYC) for 24 hours, which were then subjected to Western blotting (upper panel) and qRT-PCR (lower panel). The relative TERT mRNA expression was normalized to the control group. (FIG. 3B, 3C) Parental and BRAF V600E knock-in SW48 cells were treated with control siRNA (siControl) or MYC-specific siRNA (siMYC, 10 nM) for 48 h, followed by Western blotting (FIG. 3B) and luciferase reporter assays (FIG. 3C). *P<0.05, **P<0.01, ***P<0.001, by 2-tailed Student's t test. n.s., not significant. All the values represent the average standard deviation (SD) of triplicate samples from a typical experiment. Similar results were obtained in two additional independent experiments.
FIG. 9A-9B. Summarized effects of PLX4032 (FIG. 9A) and AZD6244 (FIG. 9B) on TERT mRNA expression. Each bar represents the average+SD of the cells with the same genotypes as follows: BRAF-mut and TERT-mut cell lines: BCPAP, K1, OCUT1, A375, and M14; BRAF-mut and TERT-wt cell lines: SK-MEL-1, SK-MEL-3, and RKO; BRAF-wt and TERT-mut cell lines: TPC1, KAT18, C643, CHL-1, SK-MEL-2, and Mewo; BRAF-wt and TERT-wt cell lines: FB1, WRO, and HTORI3. Compared with the corresponding control of DMSO, **P<0.01, ***P<0.001, by independent t-test.
The BRAF V600E-specific inhibitor PLX4032 (#S1267) and the MEK1 inhibitor AZD6244 (#S1008) were purchased from Selleck Chemicals (Houston, TX), dissolved in DMSO with a stock concentration of 10 mM and stored at −20° C. PLX4032 and AZD6244 were used to treat cells for 24 hours at 0.5 μM and 0.2 μM, respectively, where indicated in the manuscript. DMSO was used as the vehicle control.
Total RNA was extracted from cultured cells using the TRIzol reagent (#15596-018; Ambion, Life Technologies, Carlsbad, CA) and reverse-transcribed to cDNA using the SuperScript III First-Strand Synthesis System (#18080-051; Invitrogen, Life Technologies, Carlsbad, CA). Gene expression was analyzed in triplicate using FastStart Universal SYBR Green Master with ROX (#04913850001; Roche Applied Science, Indianapolis, IN) on the Applied Biosystems 7900HT Fast Real-Time PCR System. […]
For orientation: Quantitative PCR measures a nucleic acid by following its amplification.

In experiment [1] the test system is MEK and ERK phosphorylation. Conditions: wild-type BRAF cells; previous finding (refs 28, 29); cited from earlier work.

`CCCS(=O)(=O)Nc1ccc(F)c(C(=O)c2c[nH]c3ncc(-c4ccc(Cl)cc4)cc23)c1F` [PLX4032]: the TERT expression entry in the experiment on TERT expression (RKO and SK-MEL-3 cells, wild-type TERT promoter) is on record as “moderate level”; with TERT expression (all the cells harboring BRAF mutation (FIG. 3A)) it was “decreased TERT expression”; in the experiment with TERT expression (cells harboring both BRAF V600E and TERT promoter mutations) it was “dramatically inhibited TERT expression”; in the experiment on TERT expression (cells harboring the wild-type TERT promoter) it was “limited effect”; in the experiment on TERT expression (cells harboring wild-type BRAF), “no inhibitory effect”; in the experiment on TERT expression (wild-type BRAF cell lines, especially TERT mutant cells (KAT18, C643 and CHL-1)) it was “increase in TERT expression”. Further, in the experiment with TERT expression (cells harboring TERT promoter mutations, 0.5 uM PLX4032 with 10 nM siMYC, 24 hours), the “TERT expression after siRNA knockdown of MYC” value is “could further inhibit TERT expression”. Further, the “MEK and ERK phosphorylation” value in experiment [1] is “induced MEK and ERK phosphorylation”.
